Measured values as given in patent publication US6660742B2, “Compositions and methods of the use thereof achiral analogues of CC-1065 and the duocarmycins” (priority 2000, dated 2003).
Read-outs that look alike come from different tables or passages of the source.

What was measured:
SW-620 = assay: NCI screen, SW-620 (Colon Cancer); assay type: cell-based, human
Method: (§1) The compounds of this invention were also tested against the panel of 60 human cancer cell lines at the National Cancer Institute, Bethesda, Md. […] The cytrotoxicity studies were conducted using a 48 hour exposure, and measuring the optical density of sulforhodamide B-derived color.

IGROV1 = assay: NCI screen, IGROV1 (Ovarian Cancer); assay type: cell-based, human; conditions: IGROV1, 48 hour exposure
Method: as §1

ACHN = assay type: cell-based, human
MDA-MB-435 = assay: NCI screen, MDA-MB-435 (Breast Cancer); assay type: cell-based, human
Method: as §1

MDA-MB-231/ATCC = conditions: MDA-NB-231/ATCC, 48 hour exposure
SR = assay: NCI screen, SR (Leukemia)
Method: as §1

K-562 = assay: NCI screen, K-562 (Leukemia)
Method: as §1

SF-268 = assay: NCI screen, SF-268 (CNS Cancer); conditions: SF-268, 48 hour exposure
Method: (§2) The compounds of this invention were also tested against the panel of 60 human cancer cell lines at the National Cancer Institute, Bethesda, Md. (44). The cytrotoxicity studies were conducted using a 48 hour exposure, and measuring the optical density of sulforhodamide B-derived color.

SNB-19 = assay: NCI screen, SNB-19 (CNS Cancer)
Method: as §1

SNB-75 = assay: NCI screen, SNB-75 (CNS Cancer); conditions: SNB-75, 48 hour exposure
Method: as §1

786-0 = assay: NCI screen, 786-0 (Renal Cancer)
Method: as §1

SN12C = assay: NCI screen, SN12C (Renal Cancer)
Method: as §1

CAKI-1 = assay: NCI screen, CAKI-1 (Renal Cancer); conditions: CAKI-1, 48 hour exposure
Method: as §1

MDA-N = assay: NCI screen, MDA-N (Breast Cancer); conditions: MDA-N, 48 hour exposure
Method: as §1

HCT-116 = assay: NCI screen, HCT-116 (Colon Cancer); conditions: HCT-116, 48 hour exposure
Method: as §1

BT-549 = assay: NCI screen, BT-549 (Breast Cancer); conditions: BT-549, 48 hour exposure
Method: as §2

PC-3 = assay: NCI screen, PC-3 (Prostrate Cancer)
Method: as §1

OVCAR-3 = assay: NCI screen, OVCAR-3 (Ovarian Cancer)
Method: as §1

HOP-62 = assay: NCI screen, HOP-62 (Non-Small Cell Lung Cancer)
Method: as §1

NCI-H522 = assay: NCI screen, NCI-H522 (Non-Small Cell Lung Cancer)
Method: as §1

[1] = Log10 Concentration −4.3, 48 hour exposure
[2] = Log10 Concentration −5.3, 48 hour exposure
[3] = Log10 Concentration −6.3, 48 hour exposure
[4] = Log10 Concentration −7.3, 48 hour exposure
[5] = Log10 Concentration −8.3, 48 hour exposure

COC(=O)c1[nH]c2c(O)cc(NC(=O)c3cc4cc(OC)c(OC)c(OC)c4[nH]3)c(CCCl)c2c1C(=O)OC [Compound 22, Dimethyl 4-(2-chloroethyl)-7-hydroxy-5-(5,6,7-trimethoxyindole-2-carboxamido)indole-2,3-dicarboxylate]
TGI (SW-620; 48 hour exposure): 1.90E−05 Molar
Percent Growth (SW-620; [1]): −11%
Percent Growth (SW-620; [2]): 16%
Percent Growth (SW-620; [3]): 9%
Percent Growth (SW-620; [4]): 71%
Percent Growth (SW-620; [5]): 86%
TGI (IGROV1): 1.62E−07 Molar
Percent Growth (IGROV1; Log10 Concentration −4.3): −80%
Percent Growth (IGROV1; Log10 Concentration −5.3): −35%
Percent Growth (IGROV1; Log10 Concentration −6.3): −59%
Percent Growth (IGROV1; Log10 Concentration −7.3): 61%
Percent Growth (IGROV1; Log10 Concentration −8.3): 71%
TGI (ACHN): 5.95E−06 Molar
TGI (MDA-MB-435; 48 hour exposure): 3.95E−07 Molar
Percent Growth (MDA-MB-435; [1]): −32%
Percent Growth (MDA-MB-435; [2]): −28%
Percent Growth (MDA-MB-435; [3]): −11%
Percent Growth (MDA-MB-435; [4]): 97%
Percent Growth (MDA-MB-435; [5]): 96%
Percent Growth (A549/ATCC; [1]): 5%
Percent Growth (A549/ATCC; [2]): 12%
Percent Growth (A549/ATCC; [3]): −6%
Percent Growth (A549/ATCC; [4]): 93%
Percent Growth (A549/ATCC; [5]): 108%
TGI (HOP-92; 48 hour exposure): 2.57E−06 Molar
Percent Growth (HOP-92; [1]): −38%
Percent Growth (HOP-92; [2]): −5%
Percent Growth (HOP-92; [3]): 12%
Percent Growth (HOP-92; [4]): 97%
Percent Growth (HOP-92; [5]): 101%
TGI (MDA-MB-231/ATCC): > 5.00E−05 Molar
Percent Growth (MDA-MB-231/ATCC; Log10 Concentration −4.3): 10%
Percent Growth (MDA-MB-231/ATCC; Log10 Concentration −5.3): 12%
Percent Growth (MDA-MB-231/ATCC; Log10 Concentration −6.3): 16%
Percent Growth (MDA-MB-231/ATCC; Log10 Concentration −7.3): 89%
Percent Growth (MDA-MB-231/ATCC; Log10 Concentration −8.3): 99%
TGI (SR; 48 hour exposure): >5.00E−05 Molar
CC50 (SR; Homo sapiens, 48 h, read-out: LC50): > 50 µM
Percent Growth (SR; [1]): 20%
Percent Growth (SR; [2]): 27%
Percent Growth (SR; [3]): 21%
Percent Growth (SR; [4]): 28%
Percent Growth (SR; [5]): 51%
TGI (K-562; 48 hour exposure): >5.00E−05 Molar
Percent Growth (K-562; [1]): 36%
Percent Growth (K-562; [2]): 34%
Percent Growth (K-562; [3]): 43%
Percent Growth (K-562; [4]): 77%
Percent Growth (K-562; [5]): 94%
TGI (SF-268): 8.40E−08 Molar
Percent Growth (SF-268; Log10 Concentration −4.3): −58%
Percent Growth (SF-268; Log10 Concentration −5.3): −63%
Percent Growth (SF-268; Log10 Concentration −6.3): −42%
Percent Growth (SF-268; Log10 Concentration −7.3): 12%
Percent Growth (SF-268; Log10 Concentration −8.3): 80%
TGI (SNB-19; 48 hour exposure): 1.64E−05 Molar
Percent Growth (SNB-19; [1]): −7%
Percent Growth (SNB-19; [2]): 7%
Percent Growth (SNB-19; [3]): 21%
Percent Growth (SNB-19; [4]): 83%
Percent Growth (SNB-19; [5]): 89%
TGI (SNB-75): 1.90E−07 Molar
Percent Growth (SNB-75; Log10 Concentration −4.3): −51%
Percent Growth (SNB-75; Log10 Concentration −5.3): −84%
Percent Growth (SNB-75; Log10 Concentration −6.3): −44%
Percent Growth (SNB-75; Log10 Concentration −7.3): 60%
Percent Growth (SNB-75; Log10 Concentration −8.3): 77%
TGI (786-0; 48 hour exposure): 4.92E−07 Molar
Percent Growth (786-0; [1]): −50%
Percent Growth (786-0; [2]): −26%
Percent Growth (786-0; [3]): −1%
Percent Growth (786-0; [4]): 82%
Percent Growth (786-0; [5]): 94%
TGI (SN12C; 48 hour exposure): 7.17E−06 Molar
Percent Growth (SN12C; [1]): −50%
Percent Growth (SN12C; [2]): 9%
Percent Growth (SN12C; [3]): 22%
Percent Growth (SN12C; [4]): 84%
Percent Growth (SN12C; [5]): 90%
TGI (CAKI-1): 8.01E−06 Molar
Percent Growth (CAKI-1; Log10 Concentration −4.3): −40%
Percent Growth (CAKI-1; Log10 Concentration −5.3): 10%
Percent Growth (CAKI-1; Log10 Concentration −6.3): 12%
Percent Growth (CAKI-1; Log10 Concentration −7.3): 83%
Percent Growth (CAKI-1; Log10 Concentration −8.3): 97%
Percent Growth (MDA-N; Log10 Concentration −4.3): 8%
Percent Growth (MDA-N; Log10 Concentration −5.3): −3%
Percent Growth (MDA-N; Log10 Concentration −6.3): 5%
Percent Growth (MDA-N; Log10 Concentration −7.3): 91%
Percent Growth (MDA-N; Log10 Concentration −8.3): 90%
TGI (HCT-116): 1.95E−07 Molar
Percent Growth (HCT-116; Log10 Concentration −4.3): −59%
Percent Growth (HCT-116; Log10 Concentration −5.3): −9%
Percent Growth (HCT-116; Log10 Concentration −6.3): −43%
Percent Growth (HCT-116; Log10 Concentration −7.3): 62%
Percent Growth (HCT-116; Log10 Concentration −8.3): 88%
TGI (BT-549): 1.23E−05 Molar
Percent Growth (BT-549; Log10 Concentration −4.3): −39%
Percent Growth (BT-549; Log10 Concentration −5.3): 25%
Percent Growth (BT-549; Log10 Concentration −6.3): 42%
Percent Growth (BT-549; Log10 Concentration −7.3): 85%
Percent Growth (BT-549; Log10 Concentration −8.3): 91%
TGI (PC-3; 48 hour exposure): 6.40E−07 Molar
Percent Growth (PC-3; [1]): −88%
Percent Growth (PC-3; [2]): −32%
Percent Growth (PC-3; [3]): 4%
Percent Growth (PC-3; [4]): 55%
Percent Growth (PC-3; [5]): 81%
TGI (OVCAR-3; 48 hour exposure): 6.80E−06 Molar
Percent Growth (OVCAR-3; [1]): −82%
Percent Growth (OVCAR-3; [2]): 13%
Percent Growth (OVCAR-3; [3]): 4%
Percent Growth (OVCAR-3; [4]): 87%
Percent Growth (OVCAR-3; [5]): 97%
TGI (HOP-62; 48 hour exposure): 2.51E−07 Molar
Percent Growth (HOP-62; [1]): −88%
Percent Growth (HOP-62; [2]): −39%
Percent Growth (HOP-62; [3]): −34%
Percent Growth (HOP-62; [4]): 80%
Percent Growth (HOP-62; [5]): 92%
TGI (NCI-H522; 48 hour exposure): 1.47E−07 Molar
Percent Growth (NCI-H522; [1]): −96%
Percent Growth (NCI-H522; [2]): −86%
Percent Growth (NCI-H522; [3]): −66%
Percent Growth (NCI-H522; [4]): 58%
Percent Growth (NCI-H522; [5]): 74%
